This is an account of results in ChEMBL document CHEMBL1139771, “Anti-inflammatory property of the urinary metabolites of nobiletin in mouse” (Bioorg Med Chem Lett, 2007).

Calls of active or inactive are those of the source. The calls are words filed in the database; no cut-off is given here.

In data set [1] the test system is RAW264.7. Kind of data set: Antiinflammatory activity in mouse RAW264.7 cells assessed as inhibition of LPS-induced nitric oxide production at 10 uM after 24 hrs. The data set is classed as functional, cell-based.
For data set [2], the system named is RAW264.7. Kind of data set: Cytotoxicity against mouse RAW264.7 cells at 30 uM by MTT assay. Format: cell-based. The settings on record: raw264.7, 30 µM. On the technique in general: Formazan colour is commonly taken as a measure of viable cells.
The subject of data set [3] is RAW264.7. Briefly: Antiinflammatory activity in mouse RAW264.7 cells assessed as inhibition of LPS-induced nitric oxide production at 30 uM after 24 hrs. Format: functional, cell-based.
Data set [4] deals with RAW264.7. Kind of data set: Inhibition of LPS-induced COX2 protein expression in mouse RAW264.7 cells at 5 uM after 24 hrs by Western blotting. The data set is classed as functional, cell-based. (In general: Immunoblotting shows a protein as a band on a membrane.)
Data set [5] relates to RAW264.7. Briefly: Inhibition of LPS-induced iNOS protein expression in mouse RAW264.7 cells at 20 uM after 24 hrs by Western blotting. The data set is classed as functional, cell-based.
The test system of data set [6] is RAW264.7. Kind of data set: Inhibition of LPS-induced COX2 protein expression in mouse RAW264.7 cells at 20 uM after 24 hrs by Western blotting. The data set is classed as functional, cell-based.
The subject of data set [7] is RAW264.7. Kind of data set: Inhibition of LPS-induced COX2 gene expression in mouse RAW264.7 cells at 20 uM after 24 hrs by RT-PCR. Format: functional, cell-based.
The subject of data set [8] is RAW264.7. Kind of data set: Inhibition of LPS-induced iNOS gene expression in mouse RAW264.7 cells at 20 uM after 24 hrs by RT-PCR. Format: functional, cell-based.
The test system of data set [9] is RAW264.7. Briefly: Inhibition of LPS-induced iNOS protein expression in mouse RAW264.7 cells at 5 uM after 24 hrs by Western blotting. Format: functional, cell-based.

As to `COc1ccc(-c2cc(=O)c3c(OC)c(OC)c(OC)c(OC)c3o2)cc1OC` [NOBILETIN], the outcome in the data set with RAW264.7 [1] and in the data set on RAW264.7 [3] was inactive. Besides, in the data set with RAW264.7 [2], the Activity result is reported as “Non-toxic”.
For the compound `COc1c(OC)c(OC)c2c(=O)cc(-c3ccc(O)c(O)c3)oc2c1OC`, the result in the data set with RAW264.7 [4], in the data set with RAW264.7 [5], with RAW264.7 [1], with RAW264.7 [6], in the data set on RAW264.7 [7] and in the data set on RAW264.7 [8] was Active. Besides, the outcome in the data set with RAW264.7 [9] and in the data set with RAW264.7 [3] was Active. In addition, the Activity entry in the data set with RAW264.7 [2] is given as “Non-toxic”.
`COc1ccc(-c2cc(=O)c3c(OC)c(OC)c(OC)c(OC)c3o2)cc1O`: the outcome in the data set with RAW264.7 [5], with RAW264.7 [8] and with RAW264.7 [9] was inactive. The result in the data set on RAW264.7 [1] and with RAW264.7 [3] was Active. The Activity result with RAW264.7 [2] is “Non-toxic”.
With `COc1cc(-c2cc(=O)c3c(OC)c(OC)c(OC)c(OC)c3o2)ccc1O`, the result with RAW264.7 [4], with RAW264.7 [5], in the data set with RAW264.7 [1], in the data set with RAW264.7 [6], in the data set on RAW264.7 [7] and in the data set on RAW264.7 [8] was Active. Further, the outcome in the data set on RAW264.7 [9] and in the data set on RAW264.7 [3] was Active. In the data set with RAW264.7 [2], the Activity result was “Non-toxic”.
